Results from ChEMBL document CHEMBL3132801, “Meridianin G and its analogs as antimalarial agents” (Medchemcomm, 2013).
≈ marks a conversion by molar mass, not a printed value. Calls of active or inactive are those of the source. The rule behind the calls is not given here.

Experiments:
Plasmodium falciparum [1] = assay: Antimicrobial activity against Plasmodium falciparum NF54; format: functional
Aspergillus fumigatus = assay: Antimicrobial activity against Aspergillus fumigatus by NCCLS method; format: functional, organism-based
Candida albicans = assay: Antimicrobial activity against Candida albicans by NCCLS method; format: functional, organism-based
Cryptococcus neoformans = assay: Antimicrobial activity against Cryptococcus neoformans by NCCLS method; format: functional, organism-based
Staphylococcus aureus [2] = assay: Antimicrobial activity against methicillin-resistant Staphylococcus aureus by NCCLS method; format: functional, organism-based
Staphylococcus aureus [3] = assay: Antimicrobial activity against Staphylococcus aureus by NCCLS method; format: functional, organism-based
Leishmania donovani = assay: Antileishmanial activity against Leishmania donovani promastigotes after 48 hrs by Alamar Blue assay; format: functional, organism-based; conditions: Leishmania donovani, 48 h; for IC50: read-out: IC50
[4] = Selectivity index, ratio of IC50 for pig LLC-PK1 cells to IC50 for Plasmodium falciparum W2; format: toxicity, cell-based; conditions: read-out: Ratio IC50
[5] = Selectivity index, ratio of IC50 for african green monkey Vero cells to IC50 for Plasmodium falciparum W2; format: toxicity, cell-based; conditions: read-out: Ratio IC50
[6] = Selectivity index, ratio of IC50 for human HepG2 cells to IC50 for Plasmodium falciparum W2; format: toxicity, cell-based; conditions: read-out: Ratio IC50
[7] = Selectivity index, ratio of IC50 for pig LLC-PK1 cells to IC50 for Plasmodium falciparum D6; format: toxicity, cell-based; conditions: read-out: Ratio IC50
[8] = Selectivity index, ratio of IC50 for african green monkey Vero cells to IC50 for Plasmodium falciparum D6; format: toxicity, cell-based; conditions: read-out: Ratio IC50
[9] = Selectivity index, ratio of IC50 for human HepG2 cells to IC50 for Plasmodium falciparum D6; format: toxicity, cell-based; conditions: read-out: Ratio IC50
LLC-PK1 = assay: Cytotoxicity against a pig LLC-PK1 cells after 48 hrs by Neutral Red assay; format: cell-based; conditions: Sus scrofa, LLC-PK1, 48 h
Vero = assay: Cytotoxicity against african green monkey Vero cells after 48 hrs by Neutral Red assay; format: cell-based; conditions: Chlorocebus sabaeus
HepG2 = assay: Cytotoxicity against human HepG2 cells after 48 hrs by Neutral Red assay; format: cell-based; conditions: HepG2, 48 h
Plasmodium falciparum [10] = assay: Antimicrobial activity against Plasmodium falciparum W2 after 72 hrs by LDH activity assay; format: functional, organism-based; conditions: Plasmodium falciparum, W2, 72 h; read-out: IC50
Plasmodium falciparum [11] = assay: Antimicrobial activity against Plasmodium falciparum D6 after 72 hrs by LDH activity assay; format: functional, organism-based; conditions: Plasmodium falciparum, D6, 72 h; read-out: IC50

Compound | Activity (Aspergillus fumigatus) | Activity (Candida albicans) | IC50 (Cryptococcus neoformans) | MBC (Cryptococcus neoformans) | MIC (Cryptococcus neoformans) | IC50 (Staphylococcus aureus [2]) | MBC (Staphylococcus aureus [2]) | MIC (Staphylococcus aureus [2]) | MBC (Staphylococcus aureus [3]) | MIC (Staphylococcus aureus [3]) | IC50 (Leishmania donovani) | selectivity ratio [4] | selectivity ratio [5] | selectivity ratio [6] | selectivity ratio [7] | selectivity ratio [8] | selectivity ratio [9] | IC50 (LLC-PK1) | IC50 (Vero) | IC50 (HepG2) | further results
CN1CCN(c2ncc(-c3ccccc3)c(-c3c[nH]c4ccccc34)n2)CC1 |  |  |  |  |  |  |  |  |  |  |  |  |  |  |  |  |  |  |  |  | MIC (Plasmodium falciparum [1]): 3 µM (≈ 1.11 µg/mL)
Nc1nccc(-c2cn(C(=O)c3ccccc3)c3ccc(Br)cc23)n1 | inactive | inactive | 24.3 µM | inactive | inactive | Not Active | inactive | inactive | inactive | inactive | 105 µM | > 16 | > 16 | > 16 | > 8.5 | > 8.5 | > 8.5 | > 64 µM | > 64 µM | > 64 µM | IC50 (Staphylococcus aureus [3]): Not Active; IC50 (Plasmodium falciparum [10]): 3.98 µM; IC50 (Plasmodium falciparum [11]): 7.45 µM
Nc1nccc(-c2cn(Cc3ccc(Cl)s3)c3ccc(Br)cc23)n1 | inactive | inactive | 19.9 µM | 47.7 µM (≈ 20 µg/mL) | 47.7 µM (≈ 20 µg/mL) | Not Active | inactive | inactive | inactive | inactive | 29.1 µM | > 5.9 | > 5.9 | > 5.9 | > 4.4 | > 4.4 | > 4.4 | > 60 µM | > 60 µM | > 60 µM | IC50 (Staphylococcus aureus [3]; Staphylococcus aureus, read-out: IC50): 40.5 µM; IC90 (Leishmania donovani): 41.2 µM; IC50 (Plasmodium falciparum [10]): 10.1 µM; IC50 (Plasmodium falciparum [11]): 13.6 µM
